Assay results published in PubChem BioAssay (NCI).
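Abbreviation: GI50, concentration required for 50% inhibition of growth. TGI marks complete inhibition of growth.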

What was measured:
Assay in all cases: NCI anticancer screen, dose series, 384-well format
[1] = tested on: SNB-19 CNS
[2] = tested on: MDA-MB-468 breast
[3] = tested on: HOP-62 NSCLC
[4] = tested on: MALME-3M melanoma
[5] = tested on: ACHN renal
[6] = tested on: 786-0 renal
[7] = tested on: OVCAR-4 ovarian
[8] = tested on: NCI/ADR-RES ovarian
[9] = tested on: COLO 205 colon
[10] = tested on: TK-10 renal
[11] = tested on: A498 renal
[12] = tested on: OVCAR-8 ovarian
[13] = tested on: SK-OV-3 ovarian
[14] = tested on: HCT-116 colon
[15] = tested on: MDA-MB-231 breast
[16] = tested on: OVCAR-5 ovarian
[17] = tested on: NCI-H522 lung
[18] = tested on: SF-295 CNS
[19] = tested on: UO-31 renal
[20] = tested on: NCI-H23 lung
[21] = tested on: DU-145 prostate
[22] = tested on: BT-549 breast
[23] = tested on: UACC-62 melanoma
[24] = tested on: OVCAR-3 ovarian
[25] = tested on: EKVX NSCLC
[26] = tested on: A549 NSCLC
[27] = tested on: SK-MEL-28 melanoma
[28] = tested on: RPMI-8226 leukemia
[29] = tested on: U251 glioblastoma
[30] = tested on: UACC-257 melanoma
[31] = tested on: M14 melanoma
[32] = tested on: HOP-92 NSCLC
[33] = tested on: NCI-H322M lung
[34] = tested on: LOX IMVI melanoma
[35] = tested on: HT29 colon
[36] = tested on: MCF7 breast
[37] = tested on: SN12C renal
[38] = tested on: RXF 393 renal
[39] = tested on: KM12 colon
[40] = tested on: SNB-75 CNS
[41] = tested on: SR leukemia
[42] = tested on: HL-60(TB) leukemia
[43] = tested on: HS 578T breast
[44] = tested on: SF-539 CNS
[45] = tested on: SF-268 CNS
[46] = tested on: HCC-2998 colon
[47] = tested on: CAKI-1 renal
[48] = tested on: HCT-15 colon
[49] = tested on: MDA-MB-435 melanoma
[50] = tested on: SK-MEL-5 melanoma
[51] = tested on: IGROV1 ovarian
[52] = tested on: MOLT-4 leukemia
[53] = tested on: PC-3 prostate
[54] = tested on: NCI-H226 lung
[55] = tested on: SW-620 colon
[56] = tested on: NCI-H460 NSCLC

`O=C(c1ccc(OCCN2CCCCC2)cc1)c1c(-c2ccc(O)cc2)sc2cc(O)ccc12` showed a GI50 [1] of 11.7 µM, a TGI [1] of 24.1 µM and a GI50 [2] of 3.08 µM. For the same compound, the TGI [2] was 7.65 µM, the GI50 [3] was 3.31 µM and the TGI [3] was 10.8 µM. The GI50 [4] was 1.48 µM, the TGI [4] was 2.83 µM and the GI50 [5] was 4.02 µM. For the same compound, the TGI [5] was 12.9 µM, the GI50 [6] was 1.55 µM and the TGI [6] was 2.94 µM. The GI50 [7] was 8.87 µM, the TGI [7] was 20.6 µM and the GI50 [8] was 4.4 µM. For the same compound, the TGI [8] was 15.1 µM, the GI50 [9] was 17.1 µM and the TGI [9] was 30.9 µM. For the same compound, the GI50 [10] was 9.63 µM, the TGI [10] was 21.4 µM and the GI50 [11] was 2.11 µM. It also gave a TGI [11] of 4.43 µM, a GI50 [12] of 4.04 µM and a TGI [12] of 14 µM. It also gave a GI50 [13] of 9.94 µM, a TGI [13] of 21.6 µM and a GI50 [14] of 3.39 µM. The TGI [14] was 12.3 µM, the GI50 [15] was 2.2 µM and the TGI [15] was 4.97 µM. It also gave a GI50 [16] of 5.94 µM, a TGI [16] of 18.2 µM and a GI50 [17] of 7.17 µM. The TGI [17] was 19.7 µM, the GI50 [18] was 12.8 µM and the TGI [18] was 25.5 µM. For the same compound, the GI50 [19] was 2.59 µM, the TGI [19] was 7.34 µM and the GI50 [20] was 3.46 µM. It also gave a TGI [20] of 12.7 µM, a GI50 [21] of 10.8 µM and a TGI [21] of 22.7 µM. The GI50 [22] was 1.59 µM, the TGI [22] was 3.74 µM and the GI50 [23] was 5.22 µM. It also gave a TGI [23] of 17.3 µM, a GI50 [24] of 4.33 µM and a TGI [24] of 16.6 µM. It also gave a GI50 [25] of 6.23 µM, a TGI [25] of 18.5 µM and a GI50 [26] of 4.42 µM. The TGI [26] was 15.4 µM, the GI50 [27] was 2.54 µM and the TGI [27] was 7.63 µM. For the same compound, the GI50 [28] was 2.78 µM, the TGI [28] was 5.32 µM and the GI50 [29] was 4.07 µM. It also gave a TGI [29] of 13.4 µM, a GI50 [30] of 1.96 µM and a TGI [30] of 3.61 µM. For the same compound, the GI50 [31] was 2.09 µM, the TGI [31] was 3.88 µM and the GI50 [32] was 2.04 µM. It also gave a TGI [32] of 5.03 µM, a GI50 [33] of 1.86 µM and a TGI [33] of 4.78 µM. The GI50 [34] was 1.84 µM, the TGI [34] was 3.43 µM and the GI50 [35] was 5.05 µM. For the same compound, the TGI [35] was 16.8 µM, the TGI [36] was 2.78 µM and the GI50 [37] was 12.6 µM. For the same compound, the TGI [37] was 25.2 µM, the GI50 [38] was 2.29 µM and the TGI [38] was 5.12 µM. For the same compound, the GI50 [39] was 4.09 µM, the TGI [39] was 12.7 µM and the GI50 [40] was 2.69 µM. For the same compound, the TGI [40] was 8.46 µM, the GI50 [41] was 3.15 µM and the TGI [41] was 4.65 µM. For the same compound, the GI50 [42] was 1.83 µM, the TGI [42] was 3.25 µM and the GI50 [43] was 2.5 µM. It also gave a TGI [43] of 6.72 µM, a GI50 [44] of 3.27 µM and a TGI [44] of 11.3 µM. The GI50 [45] was 5.08 µM, the TGI [45] was 17.2 µM and the GI50 [46] was 3.71 µM. It also gave a TGI [46] of 12.3 µM, a GI50 [47] of 2.15 µM and a TGI [47] of 5.11 µM. The GI50 [48] was 1.26 µM, the TGI [48] was 3.51 µM and the GI50 [49] was 4.38 µM. The TGI [49] was 10.9 µM, the GI50 [50] was 1.49 µM and the TGI [50] was 3.21 µM. It also gave a GI50 [51] of 2.75 µM, a TGI [51] of 7.87 µM and a GI50 [52] of 1.8 µM. It also gave a TGI [52] of 4.59 µM, a GI50 [53] of 2.17 µM and a TGI [53] of 4.97 µM. The GI50 [54] was 3.27 µM, the TGI [54] was 11.2 µM and the GI50 [55] was 12.5 µM. For the same compound, the TGI [55] was 25.1 µM, the GI50 [56] was 8.87 µM and the TGI [56] was 21 µM.
